Laboratory results: patent US20230201213A1, “USE OF EZH2 INHIBITORS FOR TREATING CANCER” (Epizyme, Inc., priority 2020, published 2023)
“And” between values parts separate entries of the source, which are not always exact repeats. Equal values may be shown once.

Columns and labels:
Type in all cases: in vivo, human
[1] = tested on: intratumoral B cells; experiment: Multiplexed immunofluorescence (anti-CD20) of paired pre-/post-dose tumor biopsies, phase 2 mesothelioma study: intratumoral compartment
Description: (§1) In this example, subjects were enrolled in a phase 2, multicenter, open-label, 2-part, single-arm, 2-stage study to assess PK, safety and efficacy of continuous oral dosing with tazemetostat 800 mg, twice daily in adult subjects with relapsed or refractory malignant mesothelioma. Subjects continued on study treatment until disease progression, development of an unacceptable toxicity, withdrawal of consent, or termination of the study. Assessments of clinical response were performed about every 6 weeks while on study. Subjects discontinued study treatment at the time of disease progression, development of an unacceptable toxicity, withdrawal of consent, or termination of the study.
(§2) Tumor tissue biopsy samples were collected for pre-dose tumor sampling at screening and post-dose at or following the first or second tumor assessments (Cycle 3 or 5) according to local clinical site procedures, and tissue blocks processed for formalin fixation and paraffin embedding (FFPE). These FFPE samples were stored at ambient temperature. Pairs of pre- and post-treatment samples were available from 12 subjects. FFPE tissue blocks were available for 9 cases (18 tissue samples) and slides from 3 subjects were available.
(§3) Preparation of tumor tissue was performed as follows: tumor tissue sections of 4-5 micron thickness containing representative tumor cells as determined by a trained pathologist were serially-cut from the same block for two patient cases. Sections were mounted on Superfrost plus slides (Fisherbrand™) and air-dried overnight. Where possible, sections from pre- and post-treatment from the same patient case were mounted on the same slide to reduce reagent use and to diminish technical variability of multiplex, serial antibody staining between pre- and post-treatment samples. Pre- and post-treatment samples passed QC evaluation for 10 biopsy pairs, and these samples were advanced to multiplexed immunofluorescence (IF) staining.
(§4) IF staining of a panel of pairs of Cy3 and Cy5-labeled antibodies was performed. Initially an autofluorescence removal process was conducted. Subsequently, 8 rounds of antibody staining were done with deactivation of the fluorescent dyes via alkaline oxidation occurring prior to each subsequent round of antibody staining.
(§5) As many regions of interest (ROI) were selected for spectral analysis for each sample, and the number ranged from 5-39 across the collection of samples. Few of the ROI failed QC for each sample, typically no more than 1-2 in each sample. There resulting number of ROI successfully imaged and analyzed ranged from 4-39. In toto, 340 of 355 ROI passed QC assessment (95.8%).
(§6) B cell content based on the number of individual cells stained with anti-CD20 in intratumoral and stromal compartments was determined and B cell density was calculated on a mm^2 basis. Creation of intratumoral/stromal masks using PanCK and EMA staining allowed separation of intratumoral from stromal signals. The mean of B cell density from each ROI that passed QC was calculated for each pre- and post-treatment biopsy sample.

[2] = tested on: tumor-infiltrating B cells; experiment: Bulk RNA-sequencing of pre-/post-tazemetostat epithelioid sarcoma tumor samples; conditions: post- vs pre-tazemetostat
Description: as §1, with “open-label,” for “open-label, 2-part,”, “safety, tolerability” for “PK, safety”, “daily and 1600 mg once daily” for “daily”, “INI1-negative tumors” for “relapsed”, “relapsed/refractory synovial sarcoma. The patient cohorts in the study also included patients with epithelioid sarcoma.” for “refractory malignant mesothelioma.”, “8” for “6”
Tumor tissue biopsy samples from patients with epithelioid sarcoma were collected for pre-dose tumor sampling at screening and post-dose at or following the first or second tumor assessments (Cycle 3 or 5) according to local clinical site procedures, and tissue blocks processed for formalin fixation and paraffin embedding (FFPE), These FFPE samples were stored at ambient temperature. Pairs of pre- and post-treatment samples were available from 22 subjects.
Pre- and post-tazemetostat samples were analyzed using bulk RNA-sequencing to determine specific gene expression changes and also tumor-infiltrating B cell signatures. Several different B cell signatures and one Macrophage signature were analyzed including B cell memory_CIBERSORT, B cell memory_CIBERSORT-ABS, B cell memory_XCELL, B cell naïve_CIBERSORT, B cell naïve_CIBERSORT-ABS. B cell naïve_XCELL, B cell plasma_CIBERSORT, B cell plasma_CIBERSORT-ABS, B cell plasma_XCELL, B cell_EPIC, B cell_MCPCOUNTER, B cell_QUANTISEQ, B cell_TIMER, B cell_XCELL, Class-switched memory B cell_XCELL, and Macrophage_EPIC. […] Finally, two B cell-specific marker genes, CD19 and CD20, were also analyzed in pre- and post-tazemetostat administration samples.

[3] = tested on: tumor-associated B cells; experiment: RNA-SEQ gene signature analysis of pre-/post-tazemetostat mesothelioma tumor samples; conditions: post- vs pre-tazemetostat
Description: as §1, §2
The pre- and post-tazemetostat samples were also analyzed using RNA-SEQ to determine if the decrease in intratumoral B cells and stromal B cells could be observed genetically.

[4] = tested on: stromal B cells; experiment: Multiplexed immunofluorescence (anti-CD20) of paired pre-/post-dose tumor biopsies, phase 2 mesothelioma study: stromal compartment
Description: as §1, §2, §3, §4, §5, §6

[5] = 10 mesothelioma patients, post- vs pre-dose
[6] = mesothelioma, paired biopsies of 10 patients
[7] = one line per patient (Pt ID), post-dose biopsy (Cycle 3 or 5), tazemetostat 800 mg twice daily oral, relapsed or refractory malignant mesothelioma, CD20 staining, mean of ROI
[8] = one line per patient (Pt ID), post-dose vs pre-dose biopsy, 800 mg twice daily, mesothelioma, negative = increase

For `CCN(c1cc(-c2ccc(CN3CCOCC3)cc2)cc(C(=O)NCc2c(C)cc(C)[nH]c2=O)c1C)C1CCOCC1` [tazemetostat], which “% decrease in intratumoral B cell density (mean of means)” value [1, 5] is on record?
The value was 77%.

And the “median % decrease in intratumoral B cell density” value [1, 5]?
Its value is 100%.

What about the “B cell post-tazemetostat intratumoral, mean of means” value ([1]; mean over 10 patients, post-dose, pre-dose mean of means 35) of the same compound?
The value was 8 cell/mm^2.

What about the “cases in which number and density of intratumoral B cells decreased to zero” value ([1]; mesothelioma, 10 patients) of the same compound?
Its value is 5 cases.

And the “patients with a decrease of intratumoral B cells” value [1, 6]?
The value was 8/10.

And the “B cell post-tazemetostat intratumoral Mean (cell/mm^2)” value [1, 7]?
The value was 0 cell/mm^2 (5×) and 3 cell/mm^2 and 43 cell/mm^2 and 11 cell/mm^2 and 22 cell/mm^2 and 2 cell/mm^2.

What about the “% decrease B cell per sqmm in post-dose samples (intratumoral)” value [1, 8] of the same compound?
The value was 100% (5×) and 95% and −529% and 25% and 90%.

And the “increase in B cell content in one sample (intratumoral)” value ([1]; one sample that biased the mean decrease)?
Its value is over 500%.

What about the “relative expression levels of several B cell signatures” value ([2]; FIG. 7A and 7B) of the same compound?
The value was “showed decreases in relative expression levels”.

What about the “level of CD19 (B cell-specific marker gene)” value ([2]; FIG. 8) of the same compound?
Its value is “decreased”.

And the “level of CD20 (B cell-specific marker gene)” value ([2]; FIG. 8)?
Its value is “decreased”.

And the “macrophage gene signature (Marcophage_EPIC)” value [3]?
Its value is “showed no change”.

And the “relative expression level of six B cell gene signatures (B cell memory_XCELL, B cell_MCPCOUNTER, B cell naïve_CIBERSORT, B cell_QUANTISEQ, B cell naïve_CIBERSORT-ABS, B cell_XCELL)” value ([3]; FIG. 6)?
The value was “showed a decrease in relative expression level”.

What about the “% decrease in stromal B cell density (mean of means)” value [4, 5] of the same compound?
Its value is 90%.

And the “median % decrease in stromal B cell density” value [4, 5]?
The value was 99%.

And the “B cell post-tazemetostat stromal, mean of means” value ([4]; mean over 10 patients, post-dose, pre-dose mean of means 184)?
Its value is 18 cell/mm^2.

What about the “cases in which number and density of stromal B cells decreased to zero” value ([4]; mesothelioma, 10 patients) of the same compound?
Its value is 5 cases.

What about the “patients with a decrease of stromal B cells” value [4, 6] of the same compound?
The value was 9/10.

What about the “B cell post-tazemetostat stromal Mean (cell/mm^2)” value [4, 7] of the same compound?
Its value is 0 cell/mm^2 (5×) and 1 cell/mm^2 and 3 cell/mm^2 and 101 cell/mm^2 and 72 cell/mm^2 and 6 cell/mm^2.

And the “% decrease B cell per mm^2 in post-dose samples (stromal)” value [4, 8]?
The value was 100% (4×) and 99% (3×) and 90% and −418% and 29%.
